Data from BindingDB's records for doi:10.3109/14756366.2011.651463 (Medical University of Bialystok, 2013).

Columns and labels:
[1] = target: Urokinase-type plasminogen activator (Homo sapiens, UniProt P00749); assay: Urokinase Amidolytic Assay; conditions: pH 8.8
Procedure: (§1) Buffer and 0.1 mL of enzyme solution was added to 0.2 mL of examined compounddissolved in 0.15 M NaCl (as control 0.15 M NaCl). The buffer and the enzyme solution included: Tris buffer − 0.6 mL (pH 8.8), enzyme: urokinase (50 units/mL), synthetic substrate: S-2444 (0.1 mL, 3 mM). The mixture was incubated for 3 min at 37°C. After 20 min of incubation, the reaction was stopped by adding 0.1 ml of 50% acetic acid, and the absorbance of the released p-nitroaniline was measured at 405 nm (Spekol 1300, AnalyticJena).

[2] = target: Prothrombin (Homo sapiens, UniProt P00734); assay: Thrombin Amidolytic Assay; conditions: pH 8.4
Procedure: as §1, with “− 0.5” for “− 0.6”, “(pH 8.4),” for “(pH 8.8),”, “enzyme: thrombin (1” for “enzyme: urokinase (50”, “substrate: S-2238 (0.2” for “substrate: S-2444 (0.1”, “mL, 0.75” for “mL, 3”

[3] = target: Serine protease 1 (Homo sapiens, UniProt P07477); assay: Tyrpsin Amidolytic Assay; conditions: pH 7.5
Serine protease 1, sequence (P07477 whole entry): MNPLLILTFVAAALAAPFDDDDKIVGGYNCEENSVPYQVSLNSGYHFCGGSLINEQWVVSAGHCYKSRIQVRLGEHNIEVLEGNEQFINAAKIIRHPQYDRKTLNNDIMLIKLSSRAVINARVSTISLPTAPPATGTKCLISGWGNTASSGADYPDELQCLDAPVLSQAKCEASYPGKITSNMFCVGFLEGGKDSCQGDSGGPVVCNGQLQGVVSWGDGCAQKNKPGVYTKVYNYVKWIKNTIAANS
Procedure: as §1, with “included: […]” for “included: Tris”, “− 0.5” for “− 0.6”, “(pH 7.5),” for “(pH 8.8),”, “enzyme: trypsin (0.4units/mL),” for “enzyme: urokinase (50 units/mL),”, “substrate: Bzl-L-Arg-pNA HCl (0.2” for “substrate: S-2444 (0.1”, “mL, 8” for “mL, 3”

[4] = target: Plasminogen (Homo sapiens, UniProt P00747); assay: Plasmin Amidolytic Assay; conditions: pH 7.4
Plasminogen, sequence (P00747 97-580 limits assumed): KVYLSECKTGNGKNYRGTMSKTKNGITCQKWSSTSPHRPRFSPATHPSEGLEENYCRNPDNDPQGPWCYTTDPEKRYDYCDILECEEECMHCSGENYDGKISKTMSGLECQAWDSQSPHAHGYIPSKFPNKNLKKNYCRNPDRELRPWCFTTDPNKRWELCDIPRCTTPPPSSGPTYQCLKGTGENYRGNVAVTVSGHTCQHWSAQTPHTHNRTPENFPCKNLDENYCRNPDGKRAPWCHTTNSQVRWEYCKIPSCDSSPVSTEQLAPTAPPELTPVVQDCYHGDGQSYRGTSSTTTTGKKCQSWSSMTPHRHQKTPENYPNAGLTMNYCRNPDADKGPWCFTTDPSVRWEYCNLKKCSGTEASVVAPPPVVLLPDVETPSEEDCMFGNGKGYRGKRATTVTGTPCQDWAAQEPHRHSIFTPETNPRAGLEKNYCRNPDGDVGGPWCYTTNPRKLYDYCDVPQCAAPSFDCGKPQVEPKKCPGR
Plasminogen, sequence (P00747 581-810 limits assumed): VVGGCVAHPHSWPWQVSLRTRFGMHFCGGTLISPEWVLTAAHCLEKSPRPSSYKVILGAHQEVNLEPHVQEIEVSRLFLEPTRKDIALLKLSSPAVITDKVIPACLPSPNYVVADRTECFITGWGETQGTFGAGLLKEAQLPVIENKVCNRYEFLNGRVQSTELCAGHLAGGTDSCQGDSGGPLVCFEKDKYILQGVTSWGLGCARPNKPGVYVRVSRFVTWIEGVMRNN
Procedure: as §1, with “0.5” for “0.6”, “7.4),” for “8.8),”, “plasmin (0.4” for “urokinase (50”, “S-2251 (0.2” for “S-2444 (0.1”

Ki [1]	Ki [2]	Ki [3]	Ki [4]	SMILES
395 µM	15 µM	–	–	N=C(N)NCCC[C@@H](NC(=O)C1(NC(=O)[C@H](N)CO)CCCCC1)C(=O)O [H-D-Ser-1ACH-Arg-OH (8)]
–	–	26.2 µM	7.7 µM	N=C(N)NCCC[C@H](NC(=O)C1(NC(=O)[C@H](N)CO)CCCCC1)C(=O)O [H-D-Ser-1ACH-Arg-OH (8)]
247 µM	19.8 µM	–	–	N=C(N)NCCC[C@@H](NC(=O)[C@@H](CC1CCCCC1)NC(=O)[C@H](N)CO)C(=O)O [H-D-Ser-Cha-Arg-OH (5)]
–	–	30.9 µM	8.9 µM	N=C(N)NCCC[C@H](NC(=O)[C@H](CC1CCCCC1)NC(=O)[C@H](N)CO)C(=O)O [H-D-Ser-Cha-Arg-OH (5)]
544 µM	12.1 µM	–	–	N=C(N)NCCC[C@@H](NC(=O)[C@@H](Cc1ccccc1)NC(=O)[C@H](N)CO)C(=O)O [H-D-Ser-Phe-Arg-OH (2)]
–	–	22.9 µM	8.7 µM	N=C(N)NCCC[C@H](NC(=O)[C@H](Cc1ccccc1)NC(=O)[C@H](N)CO)C(=O)O [H-D-Ser-Phe-Arg-OH (2)]
451 µM	18.1 µM	–	–	N=C(N)NCCC[C@@H](NC(=O)[C@@H](CCC1CCCCC1)NC(=O)[C@H](N)CO)C(=O)O [H-D-Ser-homoCha-Arg-OH (6)]
–	–	27.2 µM	11.2 µM	N=C(N)NCCC[C@H](NC(=O)[C@H](CCC1CCCCC1)NC(=O)[C@H](N)CO)C(=O)O [H-D-Ser-homoCha-Arg-OH (6)]
566 µM	16.1 µM	–	–	N=C(N)NCCC[C@@H](NC(=O)[C@@H](CCc1ccccc1)NC(=O)[C@H](N)CO)C(=O)O [H-D-Ser-homoPhe-Arg-OH (3)]
–	–	23.9 µM	5.9 µM	N=C(N)NCCC[C@H](NC(=O)[C@H](CCc1ccccc1)NC(=O)[C@H](N)CO)C(=O)O [H-D-Ser-homoPhe-Arg-OH (3)]
–	–	28.2 µM	7.9 µM	C[C@@](Cc1ccccc1)(NC(=O)[C@H](N)CO)C(=O)N[C@@H](CCCNC(=N)N)C(=O)O [H-D-Ser-αMePhe-Arg-OH (7)]
